Source: patent publication EP0497299A1, “Decarestrictine and related compounds, process for their preparation and use” (HOECHST AKTIENGESELLSCHAFT, priority 1991, dated 1992)

Tested on: Cholesterinbiosynthese
Experiment: Inhibition of cholesterol biosynthesis from 14C-acetate in HEP-G2 liver cell culture
Format: cell-based
Conditions: Homo sapiens, HepG2, 3 h, HEP-G2-Zellen; for IC50: (¹⁴C)Natriumacetat, standard preparations, read-out: IC₅₀; for inhibition at 0.01 µM: Konzentration von 10⁻⁸ mol/l, read-out: Hemmung der Cholesterinbiosynthese
Source text: 2. Die biologische Wirksamkeit der Verbindungen als Inhibitor an der Cholesterinbiosynthese läßt sich in vitro in Leberzellkulturen nachweisen.
Monolayer von HEP-G2-Zellen in lipoproteinfreiem Nährmedium werden mit entsprechenden Konzentrationen der zu prüfenden Substanzen der allgemeinen Formel I eine Stunde vorinkubiert. Nach Zugabe der ¹⁴C-markierten Biosynthesevorstufe (¹⁴C)Natriumacetat wird die Inkubation für 3 Stunden fortgesetzt. Danach wird ein Teil der Zellen alkalisch verseift, bei vorheriger Zugabe eines internen Standards von ³H-Cholesterin. Die Lipide der verseiften Zellen werden mit einem Gemisch aus Chloroform-Methanol extrahiert. Dieses Lipidgemisch wird nach Zusatz von Trägercholesterin präparativ dünnschichtchromatographisch aufgetrennt, die Cholesterinbande nach Anfärbung isoliert und die aus dem ¹⁴C-Precursor gebildete Menge ¹⁴C-Cholesterin szintigraphisch bestimmt. In einem aliquoten Teil der Zellen wurde Zellprotein bestimmt, so daß die in der Zelleinheit pro mg Zellprotein aus ¹⁴C-Präkusor gebildete Menge ¹⁴C-Cholesterins berechnet werden kann. Zum Vergleich für die Hemmwirkung eines zugesetzten Prüfpräparates dient die Kontrolle, so daß direkt die Hemmung der Cholesterinbiosynthese bei einer bestimmten molaren Konzentration des Prüfpräparates im Medium angegeben werden kann. In aliquoten Anteilen der Zellkultur wird die Intaktheit der Zellkultur und die fehlende Zellschädigung durch Präparateeinwirkung morphologisch (Lichtmikroskopie) beurteilt und biochemisch durch Bestimmung der Lactat-Dehydrogenase-Abgabe ins Inkubationsmedium gemessen.

## C[C@H](CCCC(C)(C)O)[C@H]1CC[C@H]2[C@@H]3CC=C4C[C@@H](O)CC[C@]4(C)[C@H]3CC[C@]12C [25-Hydroxycholesterin]
  IC50: 230 nM

## COC(=O)CC1CC(O)C(C(O)CC(C)O)O1 (stereo not shown) [Formel 1.4]
  inhibition at 0.01 µM: 38%

## COC(=O)C=C1CC(O)C(C(O)CC(C)O)O1 (stereo not shown) [Formel 1.5]
  inhibition at 0.01 µM: 60%

## CC[C@H](C)C(=O)O[C@H]1C[C@@H](C)C=C2C=C[C@H](C)[C@H](CC[C@@H]3C[C@@H](O)CC(=O)O3)[C@H]21 [Lovastatin]
  IC50: 23 nM
